Source: PubChem BioAssay (NCI)
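Interpolation was linear, between the two tested concentrations surrounding the appropriate level; five concentrations were tested over 48 hours in 96-well plates. Here, GI50 denotes the concentration required for 50% inhibition of growth. TGI is the concentration that stops growth completely.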

Experiments:
Experiment in all cases: growth of human tumour cells (NCI), 48 h
786-0 renal = system: 786-0 renal
A498 renal = system: A498 renal
A549 NSCLC = system: A549 NSCLC
ACHN renal = system: ACHN renal
BT-549 breast = system: BT-549 breast
CAKI-1 renal = system: CAKI-1 renal
CCRF-CEM leukemia = system: CCRF-CEM leukemia
COLO 205 colon = system: COLO 205 colon
DU-145 prostate = system: DU-145 prostate
EKVX NSCLC = system: EKVX NSCLC
HCC-2998 colon = system: HCC-2998 colon
HCT-116 colon = system: HCT-116 colon
HCT-15 colon = system: HCT-15 colon
HL-60(TB) leukemia = system: HL-60(TB) leukemia
HOP-62 NSCLC = system: HOP-62 NSCLC
HOP-92 NSCLC = system: HOP-92 NSCLC
HS 578T breast = system: HS 578T breast
HT29 colon = system: HT29 colon
IGROV1 ovarian = system: IGROV1 ovarian
K-562 leukemia = system: K-562 leukemia
KM12 colon = system: KM12 colon
LOX IMVI melanoma = system: LOX IMVI melanoma
M14 melanoma = system: M14 melanoma
MALME-3M melanoma = system: MALME-3M melanoma
MCF7 breast = system: MCF7 breast
MDA-MB-231 breast = system: MDA-MB-231 breast
MDA-MB-435 = system: MDA-MB-435
MOLT-4 leukemia = system: MOLT-4 leukemia
NCI-H226 lung = system: NCI-H226 lung
NCI-H23 lung = system: NCI-H23 lung
NCI-H460 lung = system: NCI-H460 lung
NCI-H522 lung = system: NCI-H522 lung
NCI/ADR-RES ovarian = system: NCI/ADR-RES ovarian
OVCAR-3 ovarian = system: OVCAR-3 ovarian
OVCAR-4 ovarian = system: OVCAR-4 ovarian
OVCAR-5 ovarian = system: OVCAR-5 ovarian
OVCAR-8 ovarian = system: OVCAR-8 ovarian
PC-3 prostate = system: PC-3 prostate
RPMI-8226 leukemia = system: RPMI-8226 leukemia
RXF 393 renal = system: RXF 393 renal
SF-268 CNS = system: SF-268 CNS
SF-295 CNS = system: SF-295 CNS
SF-539 CNS = system: SF-539 CNS
SK-MEL-2 melanoma = system: SK-MEL-2 melanoma
SK-MEL-28 melanoma = system: SK-MEL-28 melanoma
SK-MEL-5 melanoma = system: SK-MEL-5 melanoma
SK-OV-3 ovarian = system: SK-OV-3 ovarian
SN12C renal = system: SN12C renal
SNB-19 CNS = system: SNB-19 CNS
SNB-75 CNS = system: SNB-75 CNS
SR leukemia = system: SR leukemia
SW-620 colon = system: SW-620 colon
T-47D breast = system: T-47D breast
TK-10 renal = system: TK-10 renal
U251 CNS = system: U251 CNS
UACC-257 melanoma = system: UACC-257 melanoma
UACC-62 melanoma = system: UACC-62 melanoma
UO-31 renal = system: UO-31 renal
MDA-N = system: MDA-N

## Cc1ccc(S(=O)(=O)NC(CCC(=O)Nc2ccc(Cl)cc2)C(=O)Nc2ccc(Cl)cc2)cc1 (stereo not drawn)
786-0 renal
  GI50: 0.726 µM
  TGI: 5.69 µM
A498 renal
  GI50: 0.717 µM
  TGI: 5.34 µM
A549 NSCLC
  GI50: 0.178 µM
  TGI: 6.72 µM
ACHN renal
  GI50: 0.248 µM
  TGI: 6.57 µM
BT-549 breast
  GI50: 0.967 µM
  TGI: 6.71 µM
CAKI-1 renal
  GI50: 0.473 µM
  TGI: 8.14 µM
CCRF-CEM leukemia
  GI50: 0.203 µM
  TGI: 7.22 µM
COLO 205 colon
  GI50: 0.531 µM
  TGI: 2.15 µM
DU-145 prostate
  GI50: 1.2 µM
  TGI: 9.89 µM
EKVX NSCLC
  GI50: 2.01 µM
  TGI: 9.31 µM
HCC-2998 colon
  GI50: 1.48 µM
  TGI: 7.14 µM
HCT-116 colon
  GI50: 0.139 µM
  TGI: 7.05 µM
HCT-15 colon
  GI50: 0.118 µM
  TGI: 7.36 µM
HL-60(TB) leukemia
  GI50: 0.369 µM
  TGI: 5.76 µM
HOP-62 NSCLC
  GI50: 0.62 µM
  TGI: 2.07 µM
HOP-92 NSCLC
  GI50: 0.805 µM
  TGI: 2.76 µM
HS 578T breast
  GI50: 1.32 µM
  TGI: 7.5 µM
HT29 colon
  GI50: 1.35 µM
  TGI: 9.85 µM
IGROV1 ovarian
  GI50: 0.852 µM
  TGI: 8.58 µM
K-562 leukemia
  GI50: 0.0519 µM
  TGI: 6.3 µM
KM12 colon
  GI50: 0.112 µM
  TGI: 6 µM
LOX IMVI melanoma
  GI50: 0.258 µM
  TGI: 5.63 µM
M14 melanoma
  GI50: 0.0541 µM
  TGI: 6.58 µM
MALME-3M melanoma
  GI50: 1.82 µM
  TGI: 8.27 µM
MCF7 breast
  GI50: 0.287 µM
  TGI: 6.51 µM
MDA-MB-231 breast
  GI50: 0.263 µM
  TGI: 4.23 µM
MDA-MB-435
  GI50: 0.169 µM
  TGI: 9.74 µM
MOLT-4 leukemia
  GI50: 0.691 µM
  TGI: 7.66 µM
NCI-H226 lung
  GI50: 0.841 µM
  TGI: 5.67 µM
NCI-H23 lung
  GI50: 1.49 µM
  TGI: 9.21 µM
NCI-H460 lung
  GI50: 0.204 µM
  TGI: 7.33 µM
NCI-H522 lung
  GI50: 0.496 µM
  TGI: 7.01 µM
NCI/ADR-RES ovarian
  GI50: 1.03 µM
  TGI: 7.63 µM
OVCAR-3 ovarian
  GI50: 0.93 µM
  TGI: 5.8 µM
OVCAR-4 ovarian
  GI50: 0.775 µM
  TGI: 3.46 µM
OVCAR-5 ovarian
  GI50: 4.31 µM
  TGI: 11.4 µM
OVCAR-8 ovarian
  GI50: 0.724 µM
  TGI: 8.62 µM
PC-3 prostate
  GI50: 0.396 µM
  TGI: 6.33 µM
RPMI-8226 leukemia
  GI50: 0.826 µM
  TGI: 7.43 µM
RXF 393 renal
  GI50: 1.89 µM
  TGI: 7.31 µM
SF-268 CNS
  GI50: 0.862 µM
  TGI: 8.04 µM
SF-295 CNS
  GI50: 0.187 µM
  TGI: 0.956 µM
SF-539 CNS
  GI50: 0.21 µM
  TGI: 1.54 µM
SK-MEL-2 melanoma
  GI50: 0.57 µM
  TGI: 6.64 µM
SK-MEL-28 melanoma
  GI50: 0.625 µM
  TGI: 6.48 µM
SK-MEL-5 melanoma
  GI50: 0.235 µM
  TGI: 3.94 µM
SK-OV-3 ovarian
  GI50: 0.869 µM
  TGI: 4.36 µM
SN12C renal
  GI50: 0.685 µM
  TGI: 8.84 µM
SNB-19 CNS
  GI50: 0.707 µM
  TGI: 4.4 µM
SNB-75 CNS
  GI50: 0.743 µM
  TGI: 2.23 µM
SR leukemia
  GI50: 0.197 µM
  TGI: 6.76 µM
SW-620 colon
  GI50: 0.555 µM
  TGI: 8.59 µM
T-47D breast
  GI50: 0.151 µM
  TGI: 2.64 µM
TK-10 renal
  GI50: 2.95 µM
  TGI: 10 µM
U251 CNS
  GI50: 0.574 µM
  TGI: 5.13 µM
UACC-257 melanoma
  GI50: 0.702 µM
  TGI: 7.5 µM
UACC-62 melanoma
  GI50: 0.0967 µM
  TGI: 0.367 µM
UO-31 renal
  GI50: 0.401 µM
  TGI: 7.28 µM

## CCN(CC)CCN1CCNc2c3cc(OC)ccc3nc3c([N+](=O)[O-])ccc1c23
786-0 renal
  TGI: 1.61 µM
A549 NSCLC
  TGI: 9.07 µM
CAKI-1 renal
  TGI: > 10 µM
CCRF-CEM leukemia
  TGI: 2.32 µM
DU-145 prostate
  TGI: > 10 µM
EKVX NSCLC
  TGI: 4.68 µM
HCC-2998 colon
  TGI: 2.03 µM
HCT-15 colon
  TGI: 2.47 µM
HL-60(TB) leukemia
  TGI: 2.12 µM
HOP-62 NSCLC
  TGI: 2.64 µM
HOP-92 NSCLC
  TGI: 6.18 µM
HT29 colon
  TGI: 6.39 µM
IGROV1 ovarian
  TGI: 9.25 µM
K-562 leukemia
  TGI: > 10 µM
KM12 colon
  TGI: 6.21 µM
LOX IMVI melanoma
  TGI: 3.21 µM
MALME-3M melanoma
  TGI: 3.23 µM
MCF7 breast
  TGI: 2.98 µM
MDA-MB-231 breast
  TGI: 2.23 µM
MDA-MB-435
  TGI: 2.69 µM
MDA-N
  TGI: 2.27 µM
MOLT-4 leukemia
  TGI: 1.42 µM
NCI-H23 lung
  TGI: 2.44 µM
OVCAR-4 ovarian
  TGI: 3.12 µM
OVCAR-8 ovarian
  TGI: > 10 µM
PC-3 prostate
  TGI: 2.25 µM
RPMI-8226 leukemia
  TGI: 2.87 µM
RXF 393 renal
  TGI: 2.11 µM
SF-268 CNS
  TGI: > 10 µM
SF-295 CNS
  TGI: 4.28 µM
SK-MEL-5 melanoma
  TGI: 2.92 µM
SK-OV-3 ovarian
  TGI: > 10 µM
SN12C renal
  TGI: 2.36 µM
SNB-75 CNS
  TGI: 6.43 µM
SR leukemia
  TGI: 1.19 µM
SW-620 colon
  TGI: 5.4 µM
T-47D breast
  TGI: > 10 µM
TK-10 renal
  TGI: > 10 µM
UACC-257 melanoma
  TGI: 5.7 µM

## CC(=O)Oc1c(C)cc(-c2cc(C)c(OC(C)=O)c(C)c2)cc1C
786-0 renal
  TGI: > 100 µM
A549 NSCLC
  TGI: > 100 µM
ACHN renal
  TGI: > 100 µM
BT-549 breast
  TGI: > 100 µM
CAKI-1 renal
  TGI: > 100 µM
CCRF-CEM leukemia
  TGI: > 100 µM
COLO 205 colon
  TGI: > 100 µM
DU-145 prostate
  TGI: > 100 µM
EKVX NSCLC
  TGI: > 100 µM
HCT-116 colon
  TGI: > 100 µM
HCT-15 colon
  TGI: > 100 µM
HL-60(TB) leukemia
  TGI: > 100 µM
HOP-62 NSCLC
  TGI: > 100 µM
HOP-92 NSCLC
  TGI: > 100 µM
HS 578T breast
  TGI: 60.1 µM
HT29 colon
  TGI: > 100 µM
IGROV1 ovarian
  TGI: > 100 µM
K-562 leukemia
  TGI: > 100 µM
KM12 colon
  TGI: > 100 µM
LOX IMVI melanoma
  TGI: > 100 µM
M14 melanoma
  TGI: > 100 µM
MALME-3M melanoma
  TGI: > 100 µM
MCF7 breast
  TGI: > 100 µM
MDA-MB-435
  TGI: 10.8 µM
MDA-N
  TGI: 25.6 µM
MOLT-4 leukemia
  TGI: > 100 µM
NCI-H226 lung
  TGI: 94.4 µM
NCI-H23 lung
  TGI: 42.8 µM
NCI-H460 lung
  TGI: > 100 µM
NCI-H522 lung
  TGI: 98.2 µM
NCI/ADR-RES ovarian
  TGI: > 100 µM
OVCAR-3 ovarian
  TGI: > 100 µM
OVCAR-4 ovarian
  TGI: > 100 µM
OVCAR-5 ovarian
  TGI: > 100 µM
OVCAR-8 ovarian
  TGI: > 100 µM
PC-3 prostate
  TGI: > 100 µM
RPMI-8226 leukemia
  TGI: > 100 µM
SF-268 CNS
  TGI: > 100 µM
SF-295 CNS
  TGI: 93.8 µM
SK-MEL-2 melanoma
  TGI: > 100 µM
SK-MEL-28 melanoma
  TGI: > 100 µM
SK-MEL-5 melanoma
  TGI: > 100 µM
SK-OV-3 ovarian
  TGI: 38.4 µM
SN12C renal
  TGI: > 100 µM
SNB-19 CNS
  TGI: > 100 µM
SNB-75 CNS
  TGI: 60.9 µM
SR leukemia
  TGI: > 100 µM
SW-620 colon
  TGI: > 100 µM
TK-10 renal
  TGI: 91.6 µM
U251 CNS
  TGI: 39.5 µM
UACC-257 melanoma
  TGI: > 100 µM
UACC-62 melanoma
  TGI: > 100 µM
UO-31 renal
  TGI: 84.6 µM
